Entries after “also recorded” stand apart in the source; their conditions may differ.
How the values were obtained:
HT1080 (fibrosarcoma) = assay: Cell viability assay, HT1080; format: cell-based
Stat5a = target: T1, Stat5a (Homo sapiens, UniProt P42229); assay: Stat5a transcriptional activity, β-casein promoter luciferase reporter gene assay in PC-3 cells; format: cell-based; set-up: expressed in transfected cells; host or cells: PC-3 (human prostate cancer cell line); conditions: 1 hour pretreatment, 10 nM hPrl for 16 hours
T1 sequence (P42229 1-794): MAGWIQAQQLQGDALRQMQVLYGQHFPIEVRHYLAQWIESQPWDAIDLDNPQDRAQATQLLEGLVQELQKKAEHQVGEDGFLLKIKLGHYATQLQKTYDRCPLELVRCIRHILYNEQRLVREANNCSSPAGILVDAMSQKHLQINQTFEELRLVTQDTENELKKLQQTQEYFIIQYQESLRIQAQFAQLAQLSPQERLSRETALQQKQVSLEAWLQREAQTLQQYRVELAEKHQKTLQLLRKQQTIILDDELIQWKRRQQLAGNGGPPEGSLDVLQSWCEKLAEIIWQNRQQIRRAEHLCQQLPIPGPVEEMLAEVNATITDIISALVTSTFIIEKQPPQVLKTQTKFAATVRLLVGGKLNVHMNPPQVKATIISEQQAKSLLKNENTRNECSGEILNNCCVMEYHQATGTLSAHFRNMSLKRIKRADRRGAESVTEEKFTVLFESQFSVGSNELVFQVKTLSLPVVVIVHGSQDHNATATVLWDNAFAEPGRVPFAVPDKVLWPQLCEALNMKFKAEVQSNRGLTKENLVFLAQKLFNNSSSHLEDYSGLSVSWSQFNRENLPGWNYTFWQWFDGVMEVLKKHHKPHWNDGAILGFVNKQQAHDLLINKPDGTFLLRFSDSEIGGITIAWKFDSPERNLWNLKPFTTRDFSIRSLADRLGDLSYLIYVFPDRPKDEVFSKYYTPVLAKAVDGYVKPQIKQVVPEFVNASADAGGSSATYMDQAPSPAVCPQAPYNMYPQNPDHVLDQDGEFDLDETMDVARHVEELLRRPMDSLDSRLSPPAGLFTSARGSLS
Experimental: Cells of the human prostate cell line PC-3 were plated into 96-well plate at the density of 2×10^5 per well. After 24 hours of plating, cells were transiently co-transfected using FuGENE6 (Roche) with 0.25 μg of each of pStat5a or pStat5b, pPrlR (prolactin receptor) plasmids, 0.5 μg of pBeta-casein-luc and 0.025 μg of pRL-TK (Renilla luciferase) plasmids as an internal control. After another 24 hours of transfection, the cells were starved in serum-free medium for 8 hours, pretreated with N^6-benzyladenosine-5′-monophosphate (“N6BAP”), or one of five control compounds (designated “C3” through “C7”) of similar molecular weight but unrelated chemical structure to N6BAP), for 1 hour, and then stimulated with 10 nM human prolactin (hPrl) in the serum-free medium for additional 16 hours. The lysates were assayed for firefly and Renilla luciferase activities using the Dual-Luciferase reporter assay system (Promega). Three independent experiments were carried out in triplicate. The firefly luciferase activity was normalized to the Renilla luciferase activity of the same sample, and the mean was calculated from the parallels. From the mean values of each independent run, the overall mean and its standard deviation (S.D.) were calculated.

[1] = test system: T47D human breast cancer cells; assay: Cell viability assay, T47D; format: cell-based
Experimental: (§1) CWR22Rv1 prostate cancer cells were treated with N6BAP or the control compound C5 (Ctrl) at 25 μM concentration or vehicle for 24 h. Following trypan blue exclusion, the attached viable vs. de-attached dead cells were counted. […] The bars indicate mean±SD of triplicate wells. In another assay, CWR22Rv1, LNCaP and DU145 cells were treated with N6BAP, the control compound C5 (Ctrl) or vehicle at indicated concentrations. The fraction of alive cells was determined by MTS ([…]) metabolic activity assay (CellTiter 96® AQueous Assay kit). The results are shown in FIGS. 9C, 9D and 9E, respectively.
The procedure of Example 9 was followed, substituting cells of the following solid tumor cell lines for the cells treated in Example 9: A549 human lung cancer cells, CAPAN human pancreatic cancer cells, T47D human breast cancer cells, […], A2058 human melanoma and COS-7 monkey fibroblast cell lines.

DU145 cells = assay: Cell viability, MTS metabolic activity assay, DU145; format: cell-based, human; conditions: DU145, 72 hours
Experimental: as §1

Stat5 = target: T2, Stat5 (Homo sapiens, UniProt P42229); assay: Prolactin-induced Stat5 phosphorylation in CWR22Rv1 cells (immunoprecipitation/Western blot); format: cell-based; conditions: CWR22Rv1 cells, 25, 50 and 100 μM for 2 h, 10 nM Prl 30 minutes
T2 construct: endogenous in cells; host or cells: CWR22Rv1
Experimental: CWR22Rv1 cells were starved for 24 h in serum-free medium, treated N6BAP at 25, 50 and 100 μM concentrations for 2 h, followed by stimulation with 10 nM Prl for 30 minutes. Stat5a and Jak2 were immunoprecipitated with anti-Stat5a or anti-Jak2 pAbs. Immunoprecipitates of CWR22Rv1 cells were blotted with anti-PYStat5, anti-Stat5a/b mAb or anti-PY mAb (for Jak2). Whole cell lysates were immunoblotted with anti-actin pAb for loading control. Because SH2-domain of Stat5 mediates the recruitment of Stat5 to the Prl-receptor-Jak2-complex and Stat5 phosphorylation, N6BAP inhibits Prl-induced phosphorylation of Stat5.
The protocol in more detail comprised the following. Cell pellets were solubilized in lysis buffer [10 mM Tris-HCl (pH 7.6), 5 mM EDTA, 50 mM sodium chloride, 30 mM sodium pyrophosphate, 50 mM sodium fluoride, 1 mM sodium orthovanadate, 1% Triton X-100, 1 mM phenylmethylsulfonyl fluoride, 5 μg/mlaprotinin, 1 μg/ml pepstatin A, and 2 μg/ml leupeptin], rotated end-over-end at 4° C. for 60 min, and insoluble material was pelleted at 12,000×g for 30 min at 4° C. The protein concentrations of clarified cell lysates were determined by simplified Bradford method (Bio-Rad Laboratories, Hercules, Calif.). Stat5a, Stat5b and Jak2 were immunoprecipitated from whole cell lysates with anti-Stat5a, anti-Stat5b (4 μl/ml; Millipore, Billerica, Mass.) or anti-Jak2 (Millipore) pAbs. […]

O=P(O)(O)OC[C@H]1O[C@@H](n2cnc3c(NCc4ccccc4)ncnc32)[C@H](O)[C@@H]1O [N6BAP, N^6-benzyladenosine-5′-monophosphate]
cell viability (HT1080 (fibrosarcoma)): did not affect the viability
transcriptional activity of Stat5a on the β-casein gene promoter (Stat5a): inhibited Stat5a and Stat5b transcriptional activity in a concentration-dependent manner; also recorded: effectively blocks the transcriptional activity
cell viability [1]: did not affect the viability
number of viable cells (DU145 cells): decreases the number of viable cells
Prl-induced phosphorylation of Stat5 (Stat5): inhibits Stat5 phosphorylation

Source: patent US20160038526A1, “TREATMENT OF PROSTATE CANCER” (THOMAS JEFFERSON UNIVERSITY, priority 2012, published 2016)
